Laboratory results reported in patent US9029080B2, “Screening assay for insecticides” (priority 2008, dated 2015).
Read-outs that look alike come from different tables or passages of the source.

Assays:
[1] = target: T1, ShaI/KChIP (Drosophila melanogaster, UniProt P17971); assay: ShaI/KChIP FLIPR membrane potential assay, KCl depolarization; format: cell-based; settings: for IC50: ShaI/KChIP 20 cells, three consecutive days
T1 construct: expressed in transfected cells; subclone 18-13-20
T1 sequence (P17971 with tags, fused parts or gaps isoform P17971-1): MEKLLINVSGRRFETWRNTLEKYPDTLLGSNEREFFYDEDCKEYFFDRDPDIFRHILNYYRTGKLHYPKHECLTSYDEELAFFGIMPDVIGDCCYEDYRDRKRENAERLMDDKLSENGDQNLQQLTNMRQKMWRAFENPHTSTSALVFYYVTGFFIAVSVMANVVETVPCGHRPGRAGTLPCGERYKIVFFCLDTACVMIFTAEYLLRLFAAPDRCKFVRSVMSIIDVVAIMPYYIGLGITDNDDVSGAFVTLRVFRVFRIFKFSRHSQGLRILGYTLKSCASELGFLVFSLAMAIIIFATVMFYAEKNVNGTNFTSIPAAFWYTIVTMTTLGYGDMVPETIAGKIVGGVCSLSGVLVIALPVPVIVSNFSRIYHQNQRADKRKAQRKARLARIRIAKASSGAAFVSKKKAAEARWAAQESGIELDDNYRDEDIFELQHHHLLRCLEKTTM
Description: This assay uses two fluid additions to permit the detection of activators and antagonists in a single experiment (FIG. 17). In screening, test compounds are added in the first addition and allowed to incubate for three minutes. An activating dose of KCl is then introduced in the second addition and the fluorescence read for an additional three minutes. Controls are run for both additions.
Cells were dispensed in a 50 μl volume containing 7,500 cells into 384-well TC clear/black assay plates (Greiner 781091) using a Multidrop 384 dispenser, incubated at ambient temperature for one hour (to reduce edge effects), and incubated overnight at 37° C./5% CO2. The cells were assayed 18-24 hours after seeding, at which point they were just approaching confluency in the wells. Culture medium was removed by flicking and tapping it out of the plate, and cells were loaded with 20 ul/well of 1× blue membrane potential dye in assay buffer for 30 minutes at 25° C. After 30 minutes the assay plate was placed into the FLIPR and run using a two-addition protocol. The first addition (5×, 5 ul) contained 2.5% DMSO in assay buffer. The pipetting height was set at 15 and the speed 20. The plate was read for three minutes after this addition. The second addition (2×, 25 ul) was either assay buffer or 120 mM isometrically-substituted KCl (i.e., KCl substituted for NaCl on a 1:1 molar basis). The height was 20 and the speed 25. Aspirate speeds were set at the lowest values and no hold or expel volumes applied. The plate was read for an additional three minutes after the second addition. The exported statistics were typically configured as stat1=average of 190-200 (the interval just before the first addition) and stat2=maximum of 260-maximum allowed. Subtract bias was set at 1 and negative control correction was OFF. Z′ statistics (an index of “screenability”, Z′>0.5=single-pass screen) were calculated using the following formula: Z′=1−((3σmax+3σmin)/(Iμmax−μminI)).
FIG. 32: BIOMOL compounds—primary screening data. ScreenWorks screenshots showing primary FLIPR data for BIOMOL compound screening. ShaI/KChIP 20 cells were plated at 7500 cells/well in 384-well assay plates and screened the following day. Culture medium was removed by flicking the plates and the cells were loaded with 20 ul 1× membrane potential dye per well for 0.5 hours at 25° C. A two-addition protocol was used. The first addition was 5 ul 5× control or compound in 2.5% DMSO in assay buffer (0.5% [final]) read for 180 sec, and the second addition was 25 ul 2× control or 120 mM isometrically-substituted KCl in assay buffer (0-60 mM [final]) read for an additional 180 sec. Statistics were exported using the average of reads 180-200 and the maximum of reads 260-maximum allowed. Subtract bias was set at 1 and negative control correction was OFF. Control columns ½ and 23/24 are described starting on pg. 53 of this document. Inset: Screenshot of group averages for the control and compound wells highlighted in the primary data screen.
The 3222 unique members of the BioFocus SoftFocus Ion Channel Libraries #1-4 (#SF101-04) were screened in 384-well four-point mode against ShaI/KChIP at 10 uM in a combined activator and antagonist screen. The same FLIPR protocol was used as for the BIOMOL screening and was carried out over four non-consecutive days. The following compound preparation protocol was used to prepare screening plates: Briefly, ShaI-KChIP cells were seeded in 384-well plates at 7500 cells/well in 50 ul and incubated overnight at 37° C./5% CO2. The next day, culture medium was removed, 20 ul of 1×FMP dye was added, and the cell plate was incubated at 27° C. for 30 minutes. After incubation, the cell plate was placed into the Tetra and a two-addition protocol was used. The 1st addition was 5 μl of 5× compound (50 μM) with a three minute read. […] The 2nd addition was 25 ul of 2× activation buffer (120 mM isometric KCl substitution for NaCl) and read for an additional two minutes. […]

[2] = target: T2, octopamine receptor (OctR, CG6919 dmOa2) (Drosophila melanogaster, UniProt Q9VCZ3); assay: OctR clone 55 FLIPR Fluo-4 calcium assay; format: cell-based; settings: clone 55, same as published cAMP data
T2 construct: expressed in transfected cells; host or cells: CHO stably expressing G-alpha-16
Description: FIG. 62. Cells were plated at 10K/well in 384 well plates and allowed to incubate overnight at […]. The cells were assayed 18-24 hours after seeding. Media was removed and cells were dye loaded for 60 minutes with 2 μM Fluo-4. After 1 hour, dye was removed and 20 μl of buffer added to the plate and placed into FLIPR. The 1st addition was antagonist dose response curves and the 2nd addition was agonist dose response curves. Antagonists were challenged with 100 nM Octopamine. In addition, these compounds were tested in the parental cell line CHO-Galpha16.
Cells were plated at 10,000 cells/well in 50 μl into 384-well black TC plates and allowed to incubate overnight at 37° C./5% CO2. The cells were assayed 18-24 hours after seeding. Culture medium was removed by flicking and cells were dye loaded for 60 minutes with 20 μl of 2 μM Fluo-4 in assay buffer plus probenecid at 25° C. After one hour dye was removed by flicking and 20 μL of assay buffer was added, wait 5 min prior to placing into the FLIPR and run using a two-addition protocol. The first addition (20 ul, 2×) was 0.5% DMSO final in assay buffer. The second addition (20 ul, 3×) was either assay buffer or 100 nM octopamine final.

[3] = read-out: inhibition of ShaI/KChIP response, arbitrary cutoff

CC1(c2ccccc2)C(=O)Nc2ccccc21 (centres unmarked)
inhibition at 10 µM [1]: 42.6%

COc1ccc(C(C)=O)cc1CC1(c2ccc3c(c2)OCO3)C(=O)Nc2ccccc21 (centres unmarked)
inhibition at 10 µM [1]: 35.2%

CC1(Cc2cc(Cl)ccc2C(F)(F)F)C(=O)Nc2ccccc21 (centres unmarked)
inhibition at 10 µM [1]: 32.5%

CC1(Cc2ccccc2C#N)C(=O)Nc2ccccc21 (centres unmarked)
inhibition at 10 µM [1]: 39.7%

Cc1ccsc1C1(C)C(=O)Nc2ccccc21 (centres unmarked)
inhibition at 10 µM [1]: 56.8%

CCC1(c2sccc2C)C(=O)Nc2ccccc21 (centres unmarked)
inhibition at 10 µM [1]: 52%

COc1ccc2c(c1)C(C)(Cc1ccc(Cl)s1)C(=O)N2 (centres unmarked)
inhibition at 10 µM [1]: 38.3%

O=C1Nc2ccc(F)cc2C1(Cc1ccccn1)c1ccc(Cl)cc1 (centres unmarked)
inhibition at 10 µM [1]: 56.8%

Cc1ccccc1C1(Cc2cccc(C#N)c2)C(=O)Nc2ccc(F)cc21 (centres unmarked)
inhibition at 10 µM [1]: 55.5%

COc1ccc(C2(Cc3ccc(C(F)(F)F)o3)C(=O)Nc3ccc(F)cc32)c(OC)c1 (centres unmarked)
inhibition at 10 µM [1]: 60.3%

COc1ccc(Cl)cc1CC1(C)C(=O)Nc2ccc(F)cc21 (centres unmarked)
inhibition at 10 µM [1]: 32%

CC1(Cc2ccc(F)c(Cl)c2)C(=O)Nc2ccc(F)cc21 (centres unmarked)
inhibition at 10 µM [1]: 52.6%

Cc1ccc(C2(Cc3csc(C)n3)C(=O)Nc3cccc(Cl)c32)cc1 (centres unmarked)
inhibition at 10 µM [1]: 46%

COC(=O)c1ccc(CC2(c3cccc(F)c3)C(=O)Nc3cccc(Cl)c32)o1 (centres unmarked)
inhibition at 10 µM [1]: 41.5%

N#Cc1cccc(CC2(c3ccccc3)C(=O)Nc3ccc(OC(F)(F)F)cc32)c1 (centres unmarked)
inhibition at 10 µM [1]: 32.1%

Cc1nc(CC2(c3ccccc3)C(=O)Nc3ccc(OC(F)(F)F)cc32)cs1 (centres unmarked)
inhibition at 10 µM [1]: 31.4%

O=C1Nc2ccc(OC(F)(F)F)cc2C1(Cc1ccccn1)c1ccccc1 (centres unmarked)
inhibition at 10 µM [1]: 39.1%

Cc1noc(C)c1CC1(c2ccccc2)C(=O)Nc2ccc(OC(F)(F)F)cc21 (centres unmarked)
inhibition at 10 µM [1]: 50.4%

Cc1ccc(C2(Cc3ccncc3)C(=O)Nc3ccc(OC(F)(F)F)cc32)cc1 (centres unmarked)
inhibition at 10 µM [1]: 29.1%

Cc1ccc(C2(Cc3cc(C)on3)C(=O)Nc3ccc(OC(F)(F)F)cc32)cc1 (centres unmarked)
inhibition at 10 µM [1]: 40.1%

Cc1nc(CC2(c3cccc(F)c3)C(=O)Nc3ccc(OC(F)(F)F)cc32)cs1 (centres unmarked)
inhibition at 10 µM [1]: 34%

CC1(Cc2cccc(F)c2)C(=O)Nc2ccc(OC(F)(F)F)cc21 (centres unmarked)
inhibition at 10 µM [1]: 33.5%

Cc1nc(CC2(c3sccc3C)C(=O)Nc3ccc(OC(F)(F)F)cc32)cs1 (centres unmarked)
inhibition at 10 µM [1]: 37.8%

Cc1nc(CC2(c3ccccc3)C(=O)Nc3cc(F)ccc32)cs1 (centres unmarked)
inhibition at 10 µM [1]: 42.5%

Cc1ccc(C2(Cc3csc(C)n3)C(=O)Nc3cc(F)ccc32)cc1 (centres unmarked)
inhibition at 10 µM [1]: 29.3%

Cc1ccc(C2(Cc3ccncc3)C(=O)Nc3cc(F)ccc32)cc1 (centres unmarked)
inhibition at 10 µM [1]: 48.5%

Cc1ccc(C2(Cc3cccc(C(N)=O)c3)C(=O)Nc3cc(F)ccc32)cc1 (centres unmarked)
inhibition at 10 µM [1]: 57.5%

Cc1nc(CC2(c3cccc(F)c3)C(=O)Nc3cc(F)ccc32)cs1 (centres unmarked)
inhibition at 10 µM [1]: 37.5%

O=C1Nc2cc(F)ccc2C1(Cc1ccc(C(F)(F)F)nc1)c1cccc(F)c1 (centres unmarked)
inhibition at 10 µM [1]: 42.7%

Cc1cc(CC2(c3cccc(F)c3)C(=O)Nc3cc(F)ccc32)no1 (centres unmarked)
inhibition at 10 µM [1]: 54.9%

NC(=O)c1cccc(CC2(c3cccc(F)c3)C(=O)Nc3cc(F)ccc32)c1 (centres unmarked)
inhibition at 10 µM [1]: 54.1%

Cc1ccsc1C1(Cc2cccc(C#N)c2)C(=O)Nc2cc(F)ccc21 (centres unmarked)
inhibition at 10 µM [1]: 58%

Cc1noc(C)c1CC1(c2ccccc2)C(=O)Nc2c(Cl)cccc21 (centres unmarked)
inhibition at 10 µM [1]: 33%

NC(=O)c1cccc(CC2(c3ccccc3)C(=O)Nc3c(Cl)cccc32)c1 (centres unmarked)
inhibition at 10 µM [1]: 33.3%

O=C1Nc2cc(Cl)cc(Cl)c2C1(Cc1ccncc1)c1ccccc1 (centres unmarked)
inhibition at 10 µM [1]: 36.4%

CC1(Cc2ccccc2C#N)C(=O)Nc2cc(OC(F)(F)F)ccc21 (centres unmarked)
inhibition at 10 µM [1]: 31.2%

CC1(Cc2ccccc2C#N)C(=O)Nc2cc(-c3ccccc3Cl)ccc21 (centres unmarked)
inhibition at 10 µM [1]: 63.3%

COc1ccc(Cl)cc1C1=NOCC(=O)N1CCOc1ccc(F)cc1
inhibition at 10 µM [1]: 38.7%

CC1ON=C(Cc2ccccc2)N(CCc2c[nH]c3ccccc23)C1=O (centres unmarked)
inhibition at 10 µM [1]: 29.6%

CCOc1ccc(C2=NOC(C)C(=O)N2Cc2cccc(F)c2)cc1 (centres unmarked)
inhibition at 10 µM [1]: 52.7%

CC1ON=C(c2cccc(Cl)c2)N(Cc2cccc(C#N)c2)C1=O (centres unmarked)
inhibition at 10 µM [1]: 38.7%

CC1ON=C(c2cccc(Cl)c2)N(Cc2ccc3c(c2)OCO3)C1=O (centres unmarked)
inhibition at 10 µM [1]: 31.5%

CC1ON=C(c2ccccc2F)N(Cc2cccc(F)c2)C1=O (centres unmarked)
inhibition at 10 µM [1]: 30.2%

Cc1cccnc1C1=NOC(Cc2ccccc2)C(=O)N1CCOc1ccc(F)cc1 (centres unmarked)
inhibition at 10 µM [1]: 36.2%

Cc1cccnc1C1=NOC(Cc2ccccc2)C(=O)N1CCc1ccccc1 (centres unmarked)
inhibition at 10 µM [1]: 33.3%

CC1=NOC(Cc2ccccc2)C(=O)N1CC(=O)c1ccccc1F (centres unmarked)
inhibition at 10 µM [1]: 41.6%

CC1ON=C(c2ccc(N(C)C)cc2)N(Cc2cccc(F)c2)C1=O (centres unmarked)
inhibition at 10 µM [1]: 41.3%

Cc1c(C(=O)NCc2ccc(F)cc2)sc(=O)n1Cc1ccc(Cl)c(Cl)c1
inhibition at 10 µM [1]: 38%

Cc1c(C(=O)NCc2ccc([N+](=O)[O-])cc2)sc(=O)n1Cc1ccc(OC(F)(F)F)cc1
inhibition at 10 µM [1]: 30.2%

O=C(NCc1cccc(C(F)(F)F)c1)c1cn(CCc2c[nH]c3ccccc23)c(=O)s1
inhibition at 10 µM [1]: 35%

Cc1c(C(=O)NCc2ccc(C(F)(F)F)cc2)sc(=O)n1CCc1c[nH]c2ccccc12
inhibition at 10 µM [1]: 33.3%

O=C(NCc1cccc(C(F)(F)F)c1)c1cn(CCOc2ccc(F)cc2)c(=O)s1
inhibition at 10 µM [1]: 30.2%

Cc1ccc(C2(Cc3c(C)noc3C)C(=O)Nc3cc(F)ccc32)cc1 (centres unmarked)
inhibition at 10 µM [1]: 35.2%

NC(N)=NC(=O)c1nc(Cl)c(N)nc1N [Amiloride, 3,5-diamino-6-chloro-N-(diaminomethylene)pyrazine-2-carboxamide, reference compound]
inhibition at 25 µM [1]: 80 to 100%
IC50 ([1]; duplicate plates, read-out: IC50 range): 20 to 29 µM
IC50 ([1]; standard deviation 3 uM, read-out: IC50 mean): 24 µM
inhibition at 25 µM [1, 3]: ≥ 55%

Cc1ccc(/N=C/N(C)/C=N/c2ccc(C)cc2C)c(C)c1 [amitraz]
rank order of potency (agonists) [2]: naphazoline>octopamine>amitraz>clonidine>tolazoline

O=C(O)c1ccccc1Nc1cccc(C(F)(F)F)c1 [flufenamic acid, reference compound]
inhibition at 25 µM [1, 3]: ≥ 55%
